# ChEMBL document CHEMBL1201862, “PubChem BioAssay data set” (2004)
#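 Interpolation was linear, between the two tested concentrations surrounding the appropriate level; five concentrations were tested over 48 hours in 96-well plates. GI50 marks 50% less growth.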 Activity calls are given as the source filed them. Rule as the data show it: active = GI50 up to about 1.1 µM and inactive = higher.
# Legend:
# Test in all cases: growth of human tumour cells (NCI), 48 h
# UO-31 = system: UO-31
# HCT-116 = system: HCT-116
# TK-10 = system: TK-10
# UACC-62 = system: UACC-62
# NCI/ADR-RES = system: NCI/ADR-RES
# NCI-H23 = system: NCI-H23
# SR = system: SR
# SN12C = system: SN12C
# SF-268 = system: SF-268
# A498 = system: A498
# MCF7 = system: MCF7
# MDA-MB-435 = system: MDA-MB-435
# SK-MEL-28 = system: SK-MEL-28
# CCRF-CEM = system: CCRF-CEM
# IGROV-1 = system: IGROV-1
# BT-549 = system: BT-549
# SW-620 = system: SW-620
# RXF 393 = system: RXF 393
SMILES,GI50 (UO-31),GI50 (HCT-116),GI50 (TK-10),GI50 (UACC-62),GI50 (NCI/ADR-RES),GI50 (NCI-H23),GI50 (SR),GI50 (SN12C),GI50 (SF-268),GI50 (A498),GI50 (MCF7),GI50 (MDA-MB-435),GI50 (SK-MEL-28),GI50 (CCRF-CEM),GI50 (IGROV-1),GI50 (BT-549),GI50 (SW-620),GI50 (RXF 393)
COc1cc2c(cc1OC)C13CCN4CC5=CCOC(CC(=O)O)C(C5CC41)C3N2 (stereo not drawn),> 100 µM (inactive),> 100 µM (inactive),> 100 µM (inactive),> 100 µM (inactive),> 100 µM (inactive),> 100 µM (inactive),> 100 µM (inactive),> 100 µM (inactive),> 100 µM (inactive),> 100 µM (inactive),> 100 µM (inactive),> 100 µM (inactive),> 100 µM (inactive),61.1 µM (inactive),> 100 µM (inactive),> 100 µM (inactive),> 100 µM (inactive),–
COc1ccccc1NCc1nnc(CCCCCCCCc2nnc(CNc3ccccc3OC)o2)o1,> 100 µM (inactive),> 100 µM (inactive),> 100 µM (inactive),> 100 µM (inactive),> 100 µM (inactive),> 100 µM (inactive),> 100 µM (inactive),> 100 µM (inactive),> 100 µM (inactive),> 100 µM (inactive),> 100 µM (inactive),> 100 µM (inactive),–,> 100 µM (inactive),–,> 100 µM (inactive),–,> 100 µM (inactive)
CCOC(=O)C1(C(C)=O)OC(=O)c2cnccc21 (stereo not drawn),> 100 µM (inactive),> 100 µM (inactive),–,> 100 µM (inactive),> 100 µM (inactive),> 100 µM (inactive),> 100 µM (inactive),> 100 µM (inactive),> 100 µM (inactive),> 100 µM (inactive),> 100 µM (inactive),> 100 µM (inactive),> 100 µM (inactive),> 100 µM (inactive),> 100 µM (inactive),> 100 µM (inactive),> 100 µM (inactive),> 100 µM (inactive)
O=C(c1ccco1)N(C(=O)N1CCN(c2ccccc2)CC1)S(=O)(=O)c1ccccc1,21.9 µM (inactive),21.3 µM (inactive),33.3 µM (inactive),27.4 µM (inactive),23.2 µM (inactive),23.7 µM (inactive),23.8 µM (inactive),23.9 µM (inactive),37.7 µM (inactive),37.5 µM (inactive),29.4 µM (inactive),23.3 µM (inactive),39.2 µM (inactive),27 µM (inactive),–,32.7 µM (inactive),38.5 µM (inactive),–
COc1ccc2c(c1)c1c(n2CCN2CCCCC2)-c2ccccc2CC1,13.3 µM (inactive),16.2 µM (inactive),14 µM (inactive),–,16.7 µM (inactive),17.7 µM (inactive),11.4 µM (inactive),16.9 µM (inactive),13.8 µM (inactive),–,14.3 µM (inactive),17.5 µM (inactive),17.9 µM (inactive),14 µM (inactive),11.6 µM (inactive),23.1 µM (inactive),17.4 µM (inactive),–
CCC1(CC)CC(=NNS(=O)(=O)c2ccc(C)cc2)C1,> 100 µM (inactive),> 100 µM (inactive),> 100 µM (inactive),> 100 µM (inactive),> 100 µM (inactive),> 100 µM (inactive),–,> 100 µM (inactive),> 100 µM (inactive),> 100 µM (inactive),> 100 µM (inactive),> 100 µM (inactive),> 100 µM (inactive),> 100 µM (inactive),> 100 µM (inactive),> 100 µM (inactive),> 100 µM (inactive),> 100 µM (inactive)
COc1cc(C(=O)O)c(-c2cc3c(cc2C=O)OCO3)c(OC)c1OC,–,> 10 µM (inactive),> 10 µM (inactive),> 10 µM (inactive),> 10 µM (inactive),> 10 µM (inactive),> 10 µM (inactive),> 10 µM (inactive),> 10 µM (inactive),–,> 10 µM (inactive),> 10 µM (inactive),> 10 µM (inactive),> 10 µM (inactive),> 10 µM (inactive),> 10 µM (inactive),> 10 µM (inactive),–
COc1ccc2c(c1)CC1COc3cc(OC)ccc3C1O2 (stereo not drawn),> 100 µM (inactive),> 100 µM (inactive),> 100 µM (inactive),> 100 µM (inactive),72.6 µM (inactive),> 100 µM (inactive),> 100 µM (inactive),> 100 µM (inactive),52.5 µM (inactive),> 100 µM (inactive),> 100 µM (inactive),> 100 µM (inactive),–,> 100 µM (inactive),> 100 µM (inactive),44.8 µM (inactive),> 100 µM (inactive),–
O=C1OS2(OCc3cccc4cccc2c34)c2ccccc21 (stereo not drawn),> 100 µM (inactive),> 100 µM (inactive),> 100 µM (inactive),> 100 µM (inactive),> 100 µM (inactive),> 100 µM (inactive),> 100 µM (inactive),> 100 µM (inactive),> 100 µM (inactive),> 100 µM (inactive),> 100 µM (inactive),> 100 µM (inactive),> 100 µM (inactive),40.3 µM (inactive),> 100 µM (inactive),> 100 µM (inactive),> 100 µM (inactive),–
Cc1c(/C=N/NC(=S)Nc2cccc(Cl)c2)c(=O)n(-c2ccccc2)n1C,15.3 µM (inactive),34 µM (inactive),16.6 µM (inactive),30.7 µM (inactive),4.35 µM (inactive),28.7 µM (inactive),50.1 µM (inactive),–,16.4 µM (inactive),3.14 µM (inactive),24.2 µM (inactive),> 100 µM (inactive),> 100 µM (inactive),22.6 µM (inactive),18.2 µM (inactive),21.4 µM (inactive),51.2 µM (inactive),15.8 µM (inactive)
CC(=S)NC=C(C(N)=O)C(N)=O,–,> 100 µM (inactive),–,> 100 µM (inactive),> 100 µM (inactive),> 100 µM (inactive),> 100 µM (inactive),> 100 µM (inactive),> 100 µM (inactive),> 100 µM (inactive),> 100 µM (inactive),> 100 µM (inactive),> 100 µM (inactive),> 100 µM (inactive),> 100 µM (inactive),> 100 µM (inactive),> 100 µM (inactive),> 100 µM (inactive)
COc1cc2c(c(O)c1O)C(=O)C1CCC(=O)N1C2c1cccc2ccccc12 (stereo not drawn),> 50 µM (inactive),> 50 µM (inactive),–,49.9 µM (inactive),> 50 µM (inactive),> 50 µM (inactive),> 50 µM (inactive),> 50 µM (inactive),> 50 µM (inactive),> 50 µM (inactive),> 50 µM (inactive),> 50 µM (inactive),> 50 µM (inactive),> 50 µM (inactive),> 50 µM (inactive),> 50 µM (inactive),> 50 µM (inactive),6.28 µM (inactive)
C/C=C1\C(=O)O[C@H]2C/C(C)=C/CC/C(C)=C/CC[C@@]3(C)O[C@@H]3C[C@@H]12,> 100 µM (inactive),> 100 µM (inactive),> 100 µM (inactive),> 100 µM (inactive),> 100 µM (inactive),–,37.8 µM (inactive),> 100 µM (inactive),> 100 µM (inactive),> 100 µM (inactive),> 100 µM (inactive),> 100 µM (inactive),> 100 µM (inactive),35 µM (inactive),61.1 µM (inactive),69.5 µM (inactive),> 100 µM (inactive),> 100 µM (inactive)
SC1=Nc2ccccc2-c2nc(-c3cccc(Cl)c3)cc(-c3ccccc3)c2C1,1.93 µM (inactive),1.64 µM (inactive),–,1.61 µM (inactive),2.04 µM (inactive),5.07 µM (inactive),11.2 µM (inactive),2.08 µM (inactive),3.79 µM (inactive),2.02 µM (inactive),5.04 µM (inactive),9.02 µM (inactive),9.12 µM (inactive),2.36 µM (inactive),0.678 µM (active),5 µM (inactive),2.98 µM (inactive),2.81 µM (inactive)
O=c1c(C(c2ccc3ccccc3c2)c2c(O)oc3ccccc3c2=O)c(O)oc2ccccc12,17 µM (inactive),35 µM (inactive),61.8 µM (inactive),38.1 µM (inactive),17.9 µM (inactive),23.2 µM (inactive),–,20.6 µM (inactive),21.4 µM (inactive),36.3 µM (inactive),37.1 µM (inactive),24.9 µM (inactive),28.6 µM (inactive),46.5 µM (inactive),30.8 µM (inactive),24.8 µM (inactive),31.9 µM (inactive),46.7 µM (inactive)
CN1C/C(=C\c2cccs2)C(=O)/C(=C/c2cccs2)C1,18.7 µM (inactive),14.2 µM (inactive),38.1 µM (inactive),57.3 µM (inactive),22.1 µM (inactive),31.2 µM (inactive),–,21.8 µM (inactive),46.7 µM (inactive),19.7 µM (inactive),15.7 µM (inactive),16 µM (inactive),52.2 µM (inactive),5.27 µM (inactive),18.9 µM (inactive),21.4 µM (inactive),40.7 µM (inactive),20.3 µM (inactive)
